Here are results for twelve molecules from patent US20080096974A2, “Polyamine-Metal Chelator Conjugates” (University of Florida Research Foundation, Inc., priority 2003, published 2008).

Counter-ions that a name gives are not always drawn. Like-named read-outs stand apart in the source and are kept apart here.

Data set [1] concerns Murine L1210 leukemia cells. The data set is described as follows: L1210 cell growth inhibition (IC50). Type of data set: cell-based. On the procedure:
Murine L1210 leukemia cells were maintained in logarithmic growth as a suspension culture in RPMI-1640 medium (Gibco, Grand Island, N.Y.) containing 10% fetal bovine serum (Gibco), 2% HEPES-MOPS buffer, 1 mM L-glutamine (Gibco), and 1 mM aminoguanidine at 37° C. in a water-jacketed 5% CO2 incubator.
Cells were grown in 25 cm^2 tissue culture flasks in a total volume of 10 mL. Cultures were treated during logarithmic growth (0.5−1.0×10^5 cells/mL) with the compounds of interest, reseeded, and incubated as described in Bergeron, R. J., Müller, R., Bussenius, J., McManis, J. S., Merriman, R. L., Smith, R. E., Yao, H., Weimar, W. R., “Synthesis and Evaluation of Hydroxylated Polyamine Analogues as Antiproliferatives,” J. Med. Chem 43: 224-235 (2000). Cell counting and calculation of percent of control growth were also carried out as described in Bergeron, et al. The IC50 is defined as the concentration of compound necessary to reduce cell growth to 50% of control growth after defined intervals of exposure.

Another data set deals with L1210 leukemia cells. The data set is described as follows: Intracellular concentration / accumulation of analogue in L1210 cells (HPLC). As to conditions: for intracellular concentration over extracellular treatment concentration: 0.2 μM extracellular.
The subject of data set [2] is chelator-promoted iron excretion. Put plainly: Iron clearance in the bile duct-cannulated rat. The data set is classed as in vivo. Particulars: for iron-clearing efficiency: bile duct-cannulated rat. On the procedure:
In this model, chelator-promoted iron excretion is measured in both the bile and the urine. Furthermore, because the method allows for collection of multiple bile samples, the kinetics of iron excretion can be determined. In each instance, the drugs were given subcutaneously. L1 and its SPM conjugate (4 and 5) were administered at a dose of 450 μmol/kg and (S)-4′-(HO)-DADFT (8) and its NSPD conjugates (9 and 10) were administered at a dose of 300 μmol/kg, i.e., all at equivalent iron-binding capacity.

In the next data set the test system is polyamine transporter. The data set is described as follows: Competition with [3H]SPD for uptake into L1210 cells (polyamine transporter, Ki). The data set is classed as cell-based, murine. Particulars: for Ki: L1210 cell suspensions, read-out: Ki, competition with [3H]SPD for the polyamine transport apparatus. The text has this:
The compounds of interest were studied for their ability to compete with [^3H]SPD for uptake into L1210 leukemia cell suspensions in vitro as described in Bergeron, R. J., Hawthorne, T. R., Vinson, J. R. T., Beck, D. L., Jr., Ingeno, M. J., “Role of the Methylene Backbone in the Antiproliferative Activity of Polyamine Analogues on L1210 Cells,” Cancer Res. 49: 2959-2964 (1989); Bergeron, R. J., McManis, J. S., Liu, C. Z., Feng, Y., Weimar, W. R., Luchetta, G. R., Wu, Q., Ortiz-Ocasio, J., Vinson, J. R. T., Kramer, D., Porter, C., “Antiproliferative Properties of Polyamine Analogues: A Structure-Activity Study,” J. Med. Chem. 37: 3464-3476 (1994); and Bergeron, R. J., Weimar, W. R., Wu, Q., Feng, Y., McManis, J. S., “Polyamine Analogue Regulation of NMDA MK-801 Binding: A Structure-Activity Study,” J. Med. Chem. 39: 5257-5266 (1996). Briefly, cell suspensions were incubated in 1 mL of culture medium containing radiolabeled SPD alone or radiolabeled SPD in the presence of graduated concentrations of a chelator or derivative. At the end of the incubation period, the tubes were centrifuged; the pellet was washed, digested, and neutralized prior to scintillation counting. Lineweaver-Burk plots indicated a simple competitive inhibition with respect to SPD.
The molecules of interest were studied for their ability to compete with [^3H]SPD for uptake into L1210 leukemia cell suspensions in vitro. Briefly, cell suspensions were incubated in 1 mL of culture medium containing radiolabeled SPD alone or radiolabeled SPD in the presence of graduated concentrations of chelator or conjugate. At the end of the incubation period, the tubes were centrifuged; the pellet was washed, digested, and neutralized prior to scintillation counting. Lineweaver-Burk plots indicated simple competitive inhibition with respect to SPD.

Data set [3] deals with polyamine pools in L1210 cells. The data set is described as follows: Effect on native polyamine pools in L1210 cells (HPLC). Type of data set: cell-based, murine. Particulars: for activity at 0.2 µM: L1210.
Experimental: At the end of the treatment period, cell suspensions were sampled, washed three times in ice-cold, incomplete medium, and pelleted for extraction using 0.6 N perchloric acid, then freeze-fractured in liquid nitrogen/hot water three times. Each supernatant was frozen at −20° C. until analysis of polyamine content by HPLC. […] The buffer consisted of potassium phosphate (10 mM) and EDTA (2 mM), pH 2.9.
In data set [4] the test system is Spermidine/spermine N^1-acetyl transferase (SSAT). The data set is described as follows: SSAT activity in treated L1210 cells. Type of data set: cell-based, murine. The text has this:
Spermidine/spermine N^1-acetyl transferase (SSAT) activity was based on quantitation of [^14C]-N^1-acetylspermidine formed by acetylation of SPD with [^14C]-acetyl coenzyme A according to the method of Libby, P. R., Bergeron, R. J., Porter, C. W., “Structure-Function Correlations of Polyamine Analog-Induced Increases in Spermidine/Spermine Acetyltransferase Activity,” Biochem. Pharmacol. 38: 1435-1442 (1989). Cells treated with DENSPM were positive controls.

Data set [5] concerns Ornithine decarboxylase (ODC). Put plainly: ODC activity in treated L1210 cells. The data set is classed as cell-based, murine. On the procedure:
(§1) Ornithine decarboxylase (ODC) and Adenosylmethionine decarboxylase (AdoMet DC) activities were determined according to the procedures of Seely, J. E., Pegg, A. E., “Ornithine Decarboxylase (Mouse Kidney),” Methods Enzymol. 94: 158-161 (1983) and Pegg, A. E., Pösö, H., “S-Adenosylmethionine Decarboxylase (Rat Liver),” Methods Enzymol. 94: 234-239 (1983), respectively, on the basis of quantitation of ^14CO2 released from [^14C]carboxyl-labeled L-ornithine or S-adenosyl-L-methionine. Included in each assay were untreated L210 cells as negative controls as well as cells treated with DEHSPM, a drug having a known reproducible effect on each enzyme, as positive controls.

In data set [6] the test system is Adenosylmethionine decarboxylase (AdoMet DC). Put plainly: AdoMetDC activity in treated L1210 cells. Type of data set: cell-based, murine. On the procedure:
as §1

The mark [7] stands for this setting: Mus musculus, 48 h exposure, read-out: IC50, 48 h.
The mark [8] stands for this setting: Mus musculus, 96 h exposure, read-out: IC50, 96 h.
Setting [9] is: rat, 300 μmol/kg subcutaneously.
Where [10] appears, read: rat, 450 μmol/kg subcutaneously.
[11] abbreviates: L1210 cells, treatment concentration 100 μM.

As usually defined, the IC50 is the concentration that inhibits the measured activity by half. For the molecule `C[C@]1(C(=O)O)CSC(c2ccc(O)cc2O)=N1` [Compound 8, 2-(2,4-dihydroxyphenyl)-4-(S)-methylthiazoline-4-carboxylic acid], the figures for the 50% inhibitory concentration (IC50) in [1] (setting [7]) and in [1] (setting [8]) were 19 µM and 20 µM, respectively. Moreover, the intracellular level with L1210 leukemia cells (extracellular 100 μM) was at most 50 µM. In addition, in [2] (300 μmol/kg subcutaneously), the iron-clearing efficiency is recorded as 1.1±0.6%.

Broadly, the Ki is the equilibrium dissociation constant of an inhibitor or competing ligand from its target. As for `NCCCCNCCCNC(=O)c1ccc(C(=O)O)cc1` [Compound 7, N^1-terephthaloylspermidine], the Ki in the data set on polyamine transporter worked out at 27 µM. In addition, the “fold increase of Ki of the free acid over the corresponding ester” value with polyamine transporter (L1210 cells) is on record as 9 fold. In the data set with L1210 leukemia cells (extracellular 100 μM), this molecule came in with an intracellular level of under 70 µM.

As usually defined, the melting point is the temperature of the solid-liquid transition. As to `Cc1c(O)c(=O)ccn1CCCNCCCCNCCCN` (as salt: hydrochloride) [Compound 3, 1-(12-Amino-4,9-diazadodecyl)-2-methyl-3-hydroxy-4(1H)-pyridinone Tetrahydrochloride], the melting point was 216 to 218 °C.

As to `CCNCCCNCCCCNCCCN` [MESPM, N^1-ethylspermine], the “intracellular concentration (analogue accumulation)” value with L1210 leukemia cells (treatment concentration 100 μM) was determined as 1.24 mM.

With `CCOC(=O)[C@@]1(C)CSC(c2ccc(OCCCCNCCCNCCCN)cc2O)=N1` [Compound 9], the inhibition constant Ki in the data set with polyamine transporter came to 5.7 µM. The half-inhibitory concentration (IC50) in data set [1] (setting [7]) and in data set [1] (setting [8]) was 1.5 µM each time. In the data set with L1210 leukemia cells (extracellular 100 μM), this molecule had an intracellular level of 947 ± 110 µM. In data set [2] (300 μmol/kg subcutaneously), this molecule registered an iron-clearing efficiency of 13.6±3.3%. Moreover, the “biliary ferrokinetics (in words)” value in data set [2] (setting [9]) is recorded as “protracted biliary iron clearance”.

`CC(=O)N(O)CCCCCNC(=O)CCC(=O)N(O)CCCCCNC(=O)CCC(=O)N(O)CCCCCN` [DFO]: the IC50 in data set [1] (setting [7]) worked out at 7 µM; in data set [1] (setting [8]), 6 µM.

Take `C[C@]1(C(=O)O)CSC(c2ccc(OCCCCNCCCNCCCN)cc2O)=N1.Cl.Cl.Cl` [Compound 10, (S)-4,5-dihydro-2-[2-hydroxy-4-(12-amino-5,9-diazadodecyloxy)phenyl]-4-methyl-4-thiazolecarboxylic acid trihydrochloride]: the Ki with polyamine transporter turned out to be 73 µM. Also, the IC50 in data set [1] (setting [7]) and in data set [1] (setting [8]) was 40 µM in each case. In addition, the intracellular level result with L1210 leukemia cells (extracellular 100 μM) is “about 70 μM”. The “biliary ferrokinetics (in words)” value in data set [2] (setting [9]) is “protracted biliary iron clearance”. Further, the “drug species found in tissues of dosed animals” value in data set [2] (rat, subcutaneous) is given as “contained largely free acid”.

`Cc1c(O)c(=O)ccn1C` [Compound L1, 1,2-Dimethyl-3-hydroxypyridin-4-one]: in data set [3] (L1210 cells, treatment 50 μM), the “putrescine, percent of control” value was “remained close to control levels” and the “spermidine, percent of control” value is listed as “remained close to control levels”. Besides, in data set [3] (Mus musculus, L1210 cells, treatment 50 μM, read-out: spermine, percent of control), the activity at 50 µM was found to be 127%. Moreover, in data set [4], the “SSAT activity, % of control” value was 108±58 % of control. In addition, the half-maximal inhibitory concentration (IC50) in data set [1] (setting [7]) stood at 46 µM. Further, in data set [1] (setting [8]), the IC50 turned out to be 55 µM. The intracellular level with L1210 leukemia cells (extracellular 50 μM) amounted to 1 µM. The iron-clearing efficiency in [2] (450 μmol/kg subcutaneously) was determined as 2.2±0.9%. Moreover, in [2] (setting [10]), the “share of excreted iron in the bile” value is on record as 74% and the “share of excreted iron in the urine” value is given as 26%. Besides, the “ODC activity, % of control” value in data set [5] is given as 114±5 % of control. Also, the “AdoMetDC activity, % of control” value in data set [6] is on record as 120±4 % of control.

Take `Cc1c(O)c(=O)ccn1CCCNCCCCNCCCN` [Compound 3, 1-(12-Amino-4,9-diazadodecyl)-2-methyl-3-hydroxy-4(1H)-pyridinone Tetrahydrochloride]: the activity at 0.2 µM in data set [3] (Mus musculus, read-out: putrescine, percent of control) amounted to 33%; in [3] (Mus musculus, read-out: spermidine, percent of control), 64%; in [3] (Mus musculus, read-out: spermine, percent of control), 139%. Besides, the “SSAT activity, % of control” value in [4] is listed as 275±6 % of control. Moreover, the IC50 in [1] (setting [7]) and in data set [1] (setting [8]) was 0.2 µM each time. Besides, the “intracellular concentration relative to that attained by parent ligand L1” value in the data set on L1210 leukemia cells was “several hundred times higher”. The “intracellular concentration over extracellular treatment concentration” value is reported as “more than 1900 fold” in the data set with L1210 leukemia cells and 1900 fold in the data set with L1210 leukemia cells (listed as 1-(12-amino-4,9-diazadodecyl)-2-methyl-3-hydroxy-4-(1H)-pyridinone). Besides, in the data set with L1210 leukemia cells (extracellular 0.2 μM), the intracellular level was determined as 390 µM. In the data set on L1210 leukemia cells (treatment concentration 0.2 μM), the “intracellular concentration (analogue accumulation)” value came to 0.39 mM. In addition, the iron-clearing efficiency in data set [2] (450 μmol/kg subcutaneously) turned out to be 1.8±0.9%. Besides, the “share of excreted iron in the bile” value in [2] (setting [10]) came to 53%. In addition, the “share of excreted iron in the urine” value in data set [2] (setting [10]) came out at 47%. The “ODC activity, % of control” value in data set [5] is recorded as 20±4 % of control. Moreover, the “AdoMetDC activity, % of control” value in data set [6] is on record as 77±11 % of control.

As to `CC(=O)NCCCNCCCCNCCCN` [AcSPM, N^1-Acetylspermine], the Ki in the data set with polyamine transporter was determined as 10 µM. Further, in data set [3] (setting [11]), the “putrescine, percent of control” value is listed as “substantial effect”; the “spermidine, percent of control” value is “slight decrease”; the “spermine, percent of control” value was “increased”. The “SSAT activity, % of control” value in [4] is given as 180±11 % of control. In addition, the IC50 in [1] (setting [7]) is over 100 µM. Moreover, in [1] (setting [8]), the IC50 was over 100 µM. In addition, in the data set on L1210 leukemia cells (treatment concentration 100 μM), the “intracellular concentration (analogue accumulation)” value was found to be 1.62 mM. Further, in data set [5], the “ODC activity, % of control” value is given as 25±11 % of control. Also, the “AdoMetDC activity, % of control” value in data set [6] is reported as 86±11 % of control.

Take `COC(=O)c1ccc(C(=O)NCCCNCCCCN)cc1` [Compound 6, N^1-terephthaloylspermidine methyl ester]: the inhibitory constant (Ki) in the data set with polyamine transporter is 3.1 µM.

In the case of `FC(F)(F)CNCCCNCCCCNCCCNCC(F)(F)F` [FDESPM], the “competition for / uptake by the polyamine transporter (in words)” value in the data set with polyamine transporter (L1210 cells) is recorded as “poor Ki”. For the same molecule, the concentration for half-maximal inhibition (IC50) in data set [1] (exposure time not given, read-out: IC50) is over 100 µM. In the data set on L1210 leukemia cells (extracellular 100 μM), the intracellular level is under 20 µM.
